Like-named read-outs stand apart in the source and are kept apart here.
Tests used:
[1] = system: PC3 prostate cancer cell line; assay: In vitro antiproliferative assay (MTT assay), PC3; assay type: cell-based; settings: 48 h, 48 hrs drug incubation, read-out: IC50 in micromolar, PC3 (MTT assay)
Procedure, shortened: (§1)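 Metabolic reduction of MTT served as the growth measure. Plated cells rested 24 h, received compound for 48 h at 37 °C under 5% CO2, then MTT at 0.5 mg/ml for 4 h before DMSO solubilization.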

[2] = system: MDAMB231 spheres (cancer stem cells); assay: In vitro sphere-forming assay (cancer stem cells), MDAMB231 in Mammosphere media; settings: for 3D sphere count of MDAMB231 in Mammosphere media: 2000 cells/well, n = 6 ± S.D
[3] = system: PC3 spheres (cancer stem cells); assay: In vitro sphere-forming assay (cancer stem cells), PC3 in Prostosphere media; settings: for 3D sphere count of PC3 in Prostosphere media: 2000 cells/well, n = 6 ± S.D
Excerpt: (§3) In Vitro Sphere-forming Assay: Sphere assay measures the ability of cancer stem cells (CSCs) to form spheres in specially designed serum-free medium.
(§4) Materials and Reagents:50×B27 Supplement (Life Technologies, Invitrogen, Catlog No.: 17502-044), Fibroblast Growth Factor (FGF) (Sigma-Aldrich, Catlog No.: F029125), Epidermal Growth Factor (EGF) (Sigma-Aldrich, Catlog No.: E9644), Insulin (Sigma, Catlog No.: 19278), Dulbecco's Modified Eagle Medium/F12 (HiMedia Catlog No.: AL139-6), Dulbecco's Phosphate Buffered Saline (HiMedia Catlog No.: TL1006), Trypan Blue (TC193), Prostate Epithelial Media (LONZA, Catlog No.: CC-3166) MEGM (LONZA, Catlog No.: CC-3051), Heparin (Sigma, Catlog No.: H3393), Penstrep (HiMedia, Catlog No.: A002)
(§5) Prostosphere Media Preparation (For 100 mL): 1 g methyl cellulose autoclaved with magnetic stirrer, 100 mL plain media (Prostate Epithelial Basal Medium) was added and dissolved, under magnetic stirring. After complete dissolution, Insulin—40 μL, B27—2 mL, EGF—80 μL, Penstrep—1 ml was added.
(§6) Procedure—The cells were trypsinised and made into single-cell suspension by passing through cell strainers (100 μl and 40 μl, respectively), The cells were diluted at a concentration of 2000 cells/100 μL and suspended in either Mammosphere (for breast cell lines) or Prostosphere (for prostate cell lines). 100 μL of this suspension was added into each well of 96-well suspension plates and incubated at 37 C, 50 CO2 for 24 hrs. Appropriate concentrations of the drugs (2 L) were added into respective wells with 100 μL of stem cell culture medium. Plates were incubated at 37° C., 50% CO2 for 72 hrs. After incubation, 2.5 μL of the respective drug concentration and 50 μL of stem cell culture medium were added into each well and the plates were further incubated at 37° C., 500 CO2 for 72 hrs. 3 μL of the respective drug concentration was added with 50 μL of stem cell culture medium again after incubation and plates were reincubated for 72 hrs at 37° C., 500 CO2. Number of primary spheres formed for each concentration were counted. The spheres were converted to 0 viability of spheres compared to untreated (Growth Control with DMSO, GCD).

[4] = system: DU145 prostate cancer cell line; assay: In vitro antiproliferative assay (MTT assay), DU145; assay type: cell-based; settings: Homo sapiens, DU-145, 48 h, 48 hrs drug incubation, read-out: IC50 in micromolar, DU145 (MTT assay)
Procedure, shortened: as §1

[5] = system: PC3 prostate cancer cell line; assay: Soft agar colony-formation assay, PC3; assay type: cell-based; settings: 168 h, 1 week, Alamar Blue, read-out: IC50 in micromolar, PC3 (Soft Agar Assay)
Procedure, shortened: (§2)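 Cells were embedded with drug in a top soft-agar layer over an agar base in 96-well format. Colonies grew for 1 week at 37 °C, 5% CO2, with medium feeding at day 3. Alamar Blue was added for 24 h, absorbance read at 630 nm, and log percent viability plotted against log drug concentration.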

[6] = system: MDAMB231 breast cancer cell line; assay: In vitro antiproliferative assay (MTT assay), MDAMB231; assay type: cell-based; settings: 48 hrs drug incubation, hydrochloride, read-out: IC50 in micromolar, MDAMB231 (MTT assay)
Procedure, shortened: as §1

[7] = system: PC3 spheres (cancer stem cells); settings: human, 216 h
Excerpt: as §3, §4, §5, §6

[8] = system: MDAMB231 breast cancer cell line; assay: Soft agar colony-formation assay, MDAMB231; assay type: cell-based; settings: Homo sapiens, MDA-MB-231, 168 h, 1 week, Alamar Blue, read-out: IC50 in micromolar, MDAMB231 (Soft Agar Assay)
Procedure, shortened: as §2

[9] = Homo sapiens, MDA-MB-231, read-out: % Viability of spheres (MDAMB231)

COc1cc2c(OCCCCN3CCOCC3)c3c(c(-c4ccc5c(c4)OCO5)c2cc1OC)C(=O)OC3.Cl [Formula VII, 4-(4-morpholinobutoxy)-9-(benzo[d][1,3]dioxol-5-yl)-6,7-dimethoxynaphtho[2,3-c]furan-1(3H)-one Hydrochloride]
IC50 [1]: 2.75 µM
3D sphere count of MDAMB231 in Mammosphere media ([2]; 0.0025 uM): 58(±3)
3D sphere count of MDAMB231 in Mammosphere media ([2]; 0.025 uM): 47(±3)
3D sphere count of MDAMB231 in Mammosphere media ([2]; 0.25 uM): 36(±3)
3D sphere count of MDAMB231 in Mammosphere media ([2]; 2.5 uM): 29(±3)
3D sphere count of MDAMB231 in Mammosphere media ([2]; 25 uM): 21(±2)
viability at 0.0025 µM [2, 9]: 81%
viability at 0.025 µM [2, 9]: 66%
viability at 0.25 µM [2, 9]: 50%
viability at 2.5 µM [2, 9]: 41%
viability at 25 µM [2, 9]: 29%
3D sphere count of PC3 in Prostosphere media ([3]; 0.0025 uM): 56(±3)
3D sphere count of PC3 in Prostosphere media ([3]; 0.025 uM): 46(±3)
3D sphere count of PC3 in Prostosphere media ([3]; 0.25 uM): 41(±3)
3D sphere count of PC3 in Prostosphere media ([3]; 2.5 uM): 37(±2)
3D sphere count of PC3 in Prostosphere media ([3]; 25 uM): 32(±3)
viability at 0.0025 µM ([3]; read-out: % Viability of spheres (PC3), 0.0025 uM, GCD = 100% viability): 69%
IC50 [4]: 2.34 µM
IC50 [5]: 2.7 µM
IC50 [6]: 3.27 µM
% Viability of spheres (PC3) ([7]; 0.025 µM): 59(±3) %
% Viability of spheres (PC3) ([7]; 0.25 µM): 50(±2) %
% Viability of spheres (PC3) ([7]; 2.5 µM): 44(±2) %
% Viability of spheres (PC3) ([7]; 25 µM): 34(±3) %
IC50 [8]: 2.05 µM
